Source: patent US8758746B2, “Fertilization modulation compounds and process for implementing them” (Universite Joseph Fourier, priority 2009, dated 2014)
“Also recorded” adds a separate entry of the source.

Tests used:
Sperm cells [1] = experiment: Detection of mGX sPLA2 released from sperm cells (TR-FIA); assay type: cell-based, mouse; details: 90 min capacitation in 2% BSA, A23187 (5 μM) during the last 30 min
Experimental: Sperm cells from 4 caudae epididymes of mGX sPLA2 mice were allowed to swim for 15 min at 37° C. in 2.5 ml of M2 medium. Aliquots of 500 μl of sperm cells were then diluted in 4.5 ml of M16 medium containing 2% fatty acid free BSA and further incubated at 37° C. for 0, 45 and 90 min. In some assays, A23187 Ca2+ ionophore (5 μM) was added after the first 60 min of incubation and sperm cells were incubated for an additional 30 min. After incubation, sperm cells were spun down for 8 min at 1,200 rpm, and supernatants and cell pellets were flash frozen in liquid nitrogen and stored at −80° C. mGX sPLA2 protein expression and enzymatic activity were analyzed on crude cell supernatants and cell pellets after resuspension in 500 μl of M16 medium containing a cocktail of protease inhibitors (Complete inhibitor set, Roche Biochemicals) and lysis with a Branson 350 Sonifier Cell disrupter. […] Briefly, 5 to 50 μl of cell lysates or supernatants were incubated for 60 min in 300 μl of sPLA2 activity buffer (0.1 M Tris pH 8.0, 10 mM CaCl2, and 0.1% bovine serum albumin containing 100,000 DPM of [3H]oleate-radiolabeled E. coli membranes. Reactions were stopped by addition of 300 μl of stop buffer (0.1 M EDTA pH 8.0 and 0.1% fatty acid free bovine serum Albumin); mixtures were centrifuged at 10,000 g for 5 min, and the supernatants containing released [^3H]oleate were counted.

Sperm cells [2] = experiment: Electron microscopy of sPLA2-induced acrosome reaction; assay type: cell-based, mouse; details: uncapacitated sperm, incubated 10 min (200 nM sPLA2)
Experimental: Sperm cells were fixed with 2.5% glutaraldehyde in 0.1 M cacodylate buffer pH 7.4 during 2 hours at room temperature. Cells were then washed with buffer and post fixed with 1% Osmium tetroxyde in the same buffer during 1 hour at 4° C. After extensive washing with water cells were then stained with 0.5% uranile acetate pH 4 overnight at 4° C. Cells were then dehydrated through graded alcohol (30%-60%-90%-100%-100%-100%) and infiltrate with a mix of 1/1 epon/alcohol 100% during 1 hour before several bath of fresh epon (Flukka) during 3 hours. Finally, cells were centrifugated and immersed in fresh Epon and polymerised during 3 days at 60° C. Ultrathin sections of the cell pellet were cut with an ultramicrotome (Leica). Sections were post-stained with 4% uranile acetate and 1% lead citrate before being observed in an electron microscope at 80 kV (JEOL 1200EX).
It was important to check with electron microscopy (EM) that sPLA2 induced a morphologically normal acrosome reaction. The morphological criteria by which an acrosome reaction is evaluated to be normal are relatively limited: first, the outer acrosomal membrane should present vesiculation, second, the plasma membrane should fuse with the outer acrosomal membrane and present a characteristic double hair pin shape at the base of the acrosome (Green, D. P. (1978) The induction of the acrosome reaction in guinea-pig sperm by the divalent metal cation ionophore A23187. J. Cell Sci., 32:137-51.:137-151.)
For these experiments, uncapacitated sperm was used in order to reduce the contribution of spontaneous AR and 200 nM sPLA2 to get maximum sPLA2-induced AR. Sperm were incubated 10 min with mGX sPLA2 or the calcium ionophore A23187 and then fixed. In the presence of A23187, all acrosome-reacted sperm presented complete AR, with the 3 morphological criteria, as described above.

## CNc1ccc2oc(C[C@H]3O[C@@]4(CC[C@H]3C)O[C@H]([C@H](C)C(=O)c3ccc[nH]3)[C@H](C)C[C@H]4C)nc2c1C(=O)O [A23187]
Sperm cells [1]
  mGX level in the capacitation medium (TRFIA): two fold increase; also recorded: doubled
Sperm cells [2]
  morphology of induced acrosome reaction (electron microscopy): complete AR
